Source: paper PMC9964404, “Molecular Modeling and In Vitro Evaluation of Piplartine Analogs against Oral Squamous Cell Carcinoma” (Molecules, 2023)
Like-named read-outs stand apart in the source and are kept apart here.

How the values were obtained:
SCC9 cells [1] = assay: MTT cell viability (cytotoxicity) assay, SCC9; type: cell-based, human; conditions: Homo sapiens
Protocol: (§1) SCC cells (SCC9 and SCC4), derived from human tongue OSCC, were obtained by (ATCC® CRL-1629 and CRL-1624) and maintained in DMEM/F12 1:1 medium (Dulbecco’s modified Eagle’s medium and Ham’s F12 medium, Gibco (Thermo Fisher, Waltham, MA, USA), supplemented with 10% (v/v) FBS (Fetal Bovine Serum; Invitrogen, Thermo Fisher, Waltham, MA, USA) and 400 ng/mL hydrocortisone (Sigma-AldrichCo., St. Louis, MO, USA). Primary normal gingival fibroblast human (PCS201 018TM) and other tumor cells B16-F10 (CRL-6475), Hep G2 (HB-8065), and HT-29 (HTB-38) were also obtained at ATCC and maintained in DMEM supplemented with 10% (v/v) FCS. Cells were cultured in a humidified environment containing 5% CO2 at 37 °C. For all experiments, the compounds were solubilized in DMSO (Sigma-Aldrich) for a final concentration of 100 mM. From this dilution, other concentrations were made to carry out the cell viability assay. Carboplatin (Fauldcarbo®; Libbs Farmacêutica, São Paulo, SP, Brazil) was used as a control antitumor compound.
(§2) The viability of cancer cells and primary fibroblasts was tested using the MTT assay as described in MACHADO et al., 2021 [49]. Briefly, cancer cells (5 × 10^3 cells/well) were plated in duplicate in a 96-well plate, as indicated. DMSO was diluted in culture medium at the same concentrations and was used as a negative control, representing 100% cell viability. After 48 h of treatment, cells were incubated for 3.5 h with 5 mg/mL of MTT reagent (3,4,5-dimethiazol-2,5-diphenyltetrazoliumbromide) (Sigma-Aldrich Co., St. Louis, MO, USA) diluted in culture medium. Subsequently, the formazan crystals were dissolved by MTT solvent (50% Methanol and 50% DMSO), and the absorbance was read at 560 nm using the EPOCH microplate spectrophotometer (BioTekInstruments, Winooski, VT, USA).
(§3) IC50 values for the MTT assay were obtained by non-linear regression using GraphPad Prism 5.0 software (GraphPad, San Diego, CA, USA) from at least three independent experiments. Data are presented as means, ± standard deviation (SD). A log dose response (inhibitor) vs. response curve using the least square method was used to determine the IC50 and SD of the data. The selectivity index was calculated as: S.I. = IC50 of the compound in fibroblasts/IC50 of the same compound in tumor cells.

[2] = system: Primary Gingival Fibroblast; assay: MTT cell viability assay, normal fibroblasts; type: cell-based, human; conditions: Homo sapiens, Fibroblast, 48 h treatment
Protocol: as §1, §2, §3

SCC4 cells = assay: MTT cell viability assay, SCC4; type: cell-based, human; conditions: Homo sapiens, SCC-4, 48 h treatment, read-out: SCC4 IC50
Protocol: as §1, §2, §3

[3] = system: Oral Tumor Cells (SCC9, SCC4); assay: MTT cell viability assay, average of OSCC lines SCC9 and SCC4; type: cell-based, human; conditions: Homo sapiens
Protocol: as §1, §2
(§4) IC50 values for the MTT assay were obtained by non-linear regression using GraphPad Prism 5.0 software (GraphPad, San Diego, CA, USA) from at least three independent experiments. […] The selectivity index was calculated as: S.I. = IC50 of the compound in fibroblasts/IC50 of the same compound in tumor cells.

B16-F10 (melanoma) = assay: MTT cell viability assay, B16-F10; type: cell-based; conditions: Mus musculus
Protocol: as §1, with “For all experiments, the compounds were solubilized in DMSO (Sigma-Aldrich) for a final concentration of 100 mM. From this dilution, other concentrations were made to carry out the cell viability assay. Carboplatin (Fauldcarbo®; Libbs Farmacêutica, São Paulo, SP, Brazil) was used as a control antitumor compound.” left out
(§5) The viability of cancer cells and primary fibroblasts was tested using the MTT assay as described in MACHADO et al., 2021 [49]. […] Subsequently, the formazan crystals were dissolved by MTT solvent (50% Methanol and 50% DMSO), and the absorbance was read at 560 nm using the EPOCH microplate spectrophotometer (BioTekInstruments, Winooski, VT, USA).
as §4

HEP G2 (hepatocarcinoma) = assay: MTT cell viability assay, HEP G2; type: cell-based
Protocol: as §1, with “For all experiments, the compounds were solubilized in DMSO (Sigma-Aldrich) for a final concentration of 100 mM. From this dilution, other concentrations were made to carry out the cell viability assay. Carboplatin (Fauldcarbo®; Libbs Farmacêutica, São Paulo, SP, Brazil) was used as a control antitumor compound.” left out
as §5, §4

[4] = system: HT-29 (colon adenocarcinoma); assay: MTT cell viability assay, HT-29; type: cell-based
Protocol: as §1, with “For all experiments, the compounds were solubilized in DMSO (Sigma-Aldrich) for a final concentration of 100 mM. From this dilution, other concentrations were made to carry out the cell viability assay. Carboplatin (Fauldcarbo®; Libbs Farmacêutica, São Paulo, SP, Brazil) was used as a control antitumor compound.” left out
as §5, §4

Hemolysis assay = type: cell-based; conditions: human erythrocytes
Protocol: Human blood was used as approved by the Research Ethics Committee of the Fluminense Federal University–Nova Friburgo, RJ (CAAE: 43134721.4.0000.5626). The erythrocytes were collected by centrifugation at 1500 rpm for 15 min, washed with PBS (phosphate buffer saline) and 10 mM glucose, and counted in an automatic cells counter (Thermo Fisher, Waltham, MA, USA). The erythrocytes were then plated in 96-well plates at a concentration of 4 × 10^8/well in triplicate, and 10 µL of the compounds were added at a final concentration of 1000 µM in PBS with glucose (final volume of 100 µL). Ten microliters of PBS were used as negative control and 10 µL of PBS with 0.1% Triton ×100 as a positive control. Data reading was performed with EPOCH (BioTek Instruments, Winooski, VT, USA) at 540 nm absorbance, and statistical data were generated with the GRAPHPAD Prism 5.0 program (Intuitive Software for Science, San Diego, CA, USA).

SCC9 cells [5] = assay: Phosphatidylserine exposure analysis (annexin V-FITC / P.I., flow cytometry); type: cell-based, human; conditions: SCC9, 48 h
Protocol: Cells of the SCC9 cell line were plated in six-well plates (5 × 10^5 cells/well), trypsinized 48 h after treatment, labeled using the Annexin V-FITC Apoptosis Detection Kit according to the manufacturer’s protocol (#BMS500FI/300, Invitrogen), and analyzed by flow cytometry.

SCC9 cells [6] = assay: SubG1 analysis (propidium iodide DNA content); type: cell-based, human; conditions: SCC9, 48 h
Protocol: (§6) To evaluate the action of the compound 9 on the cell cycle, cells of the SCC9 lineage were plated in a six-well plate (5 × 10^5 cells/well) as described in LUCENA et al., 2016. After 48h of treatment, cells were trypsinized and stained with propidium iodide (75 µM; Sigma) in the presence of NP-40 (Sigma). DNA content was analyzed by collecting 10,000 events using a FACScalibur flow cytometer. Data were analyzed using CellQuest (BD Biosciences) and FlowJo (Tree Star Inc., Ashland, OR, USA) software. (Version 9.9.4).

SCC9 cells [7] = assay: Caspase 3/7 analysis (flow cytometry); type: cell-based, human; conditions: SCC9, 2 × IC50, 48 h
Protocol: For active caspase detection, 5 × 10^4 SCC9 cells were plated in a 24-well plate containing 1 mL of DMEM/F12 with 10% FBS per well. CellEvent™ Caspase-3/7 reagent (#R37111, Invitrogen) was diluted in culture medium according to the manufacturer’s instructions. Twenty-four hours after plating, cells were treated with Caspase-3/7 reagent and 2× IC50 of 9 or DMSO as a control. Cells were analyzed by flow cytometry after 48 h of treatment.

SCC9 cells [8] = assay: Cell cycle analysis (propidium iodide); type: cell-based, human; conditions: SCC9, 48 h
Protocol: as §6

mouse erythrocytes = assay: Hemolytic activity in mouse erythrocytes; type: cell-based; conditions: mouse erythrocytes as printed

Compound: COc1ccc(COC(=O)c2cc(OC)c(OC)c(OC)c2)cc1 [Compound 9, 4-Methoxy-benzyl 3,4,5–trimethoxybenzoate]
- IC50 (SCC9 cells [1]; SCC-9, 48 h, read-out: SCC9 IC50 (µg/mL)): 15.4 µg/mL
- IC50 (SCC9 cells [1]; SCC-9, 48 h treatment, MTT, read-out: SCC9 IC50): 46.2 µM
- IC50 ([2]; read-out: Primary Gingival Fibroblast IC50): 741 µM
- IC50 ([2]; read-out: Primary Gingival Fibroblast IC50 (µg/mL)): 246 µg/mL
- IC50 (SCC4 cells): 49.8 µM
- IC50 [3]: 48 µM
- IC50 (B16-F10 (melanoma)): 73.3 µM
- IC50 (HEP G2 (hepatocarcinoma); HEP G2): 6.63 µM
- IC50 (HEP G2 (hepatocarcinoma); Homo sapiens, HepG2, HEP G2): < 10 µM
- IC50 ([4]; HT-29): 7.31 µM
- IC50 ([4]; Homo sapiens, HT-29, HT-29): < 10 µM
- hemolysis at 1000 µM (Hemolysis assay): < 1%
- annexin V single- and/or double-positive (PI+) labeling (SCC9 cells [5]): ~ 17%
- increase in annexin V labeling versus control (SCC9 cells [5]): four-fold increase
- DNA fragmentation (SubG1 DNA content) (SCC9 cells [6]): ~ 21%
- Active caspase 3/7 (SCC9 cells [7]): ~ 66%
- Cycle Phase % G2/M (SCC9 cells [8]): ~ 59%
- hemolytic activity (mouse erythrocytes): did not reveal hemolytic activity
